Measurements taken from patent US4981872A, “Prostaglandin derivatives, their preparation and their therapeutic use” (Sankyo Company Limited, priority 1987, dated 1991).
Converted amounts (≈) assume the structure as drawn.

Legend:
[1] = tested on: ethanol-induced gastric ulcers; assay: Effects on ethanol-induced gastric ulcers (inhibition of gastric mucosal lesions, oral); type: in vivo, male rats of the Sprague-Dawley strain; conditions: p.o., 1 hour before 1 ml absolute ethanol, rat, ID50 of gastric mucosal lesions, read-out: Anti-ulcer activity (ID50, p.o.)
Procedure: Effects on ethanol-induced qastric ulcers
The test animals used were male rats of the Sprague-Dawley strain each having a body weiqht of about 180-200 g, prior to use in this experiment they were starved for about 42 hours. At the end of this time, each animal was orally administered one of the test compounds shown in the following Table 3. in which the compounds are identified by the number of the foregoing Example in which they were prepared. One hour after administration, gastric mucosal lesions were induced by the oral administration of 1 ml of absolute ethanol. One hour after this administration, the animals were sacrificed with dry ice, and their stomachs were removed and fixed with formalin. The area (mm^2) of the mucosal lesions induced on the gastric mucosa by the ethanol was measured by a video image processor and the inhibition of gastric mucosal lesions by each test compound was calculated in terms of the ID50, by comparison with the results achieved from control animals which had been treated as described above, except that no anti ulcer compound was administered and from the results achieved from the test compounds at various levels of administration.
As a control, there was used the following prior art 6-oxo compound (ORNOPROSTIL): [drawing 12]

[2] = tested on: blood platelet aggregation; assay: Inhibition of blood platelet aggregation in vitro (adenosine diphosphate-induced, Born's method); type: cell-based, Japanese white rabbit; conditions: Oryctolagus cuniculus, rabbit PRP/PPP mixture, ADP 5μM
Procedure: Inhibition of blood platelet aggregation in vitro
One part by volume of blood from a Japanese white rabbit was mixed immediately after removal with one tenth of its volume of a 3.8% w/v aqueous solution of sodium citrate. The mixture was then centrifuged at 95×G for 15 minutes at room temperature to obtain a platelet-rich plasma (PRP) as the upper layer. The remaining blood sample was then centrifuged for a further 15 minutes at 1000×G to obtain a platelet poor plasma (PPP). By mixing appropriate amounts of the PRP and the PPP, the final platelet count of the mixture was adjusted to 6×105 per μ, platelet aggregation was determined by Born's method [G. V. R. Born: J. Physiol. 62, 67-68 (1962)] by increases in transparency of the test liquid using a platelet aggregometer 25 μl of a solution of the test compound were added to 250 μof the mixture of PRP and PPP and then two minutes after mixing the solutions 25 μl of a liquid containing adenosine diphosphate at a concentration of 5μM were added.
The inhibition of platelet aggregation was assessed by comparing the increase in the amount of light transmitted through the test sample treated platelet-rich plasma with a control platelet-rich plasma which had been treated in the same way, except that the test compound was replaced by physiological saline.

Structure (SMILES)	IC50 [2]	ED50 [1]
CCCC[C@H](C)C[C@H](O)/C=C/[C@H]1[C@H](O)CC(=O)[C@@H]1CC(=O)CCCCC(=O)OC [Control, reference compound]	0.0019 µg/mL (≈ 0.00463 µM)	0.2 µg/kg
COC(=O)CCC(=O)CCC[C@H]1C(=O)C[C@@H](O)[C@@H]1/C=C/[C@@H](O)COc1ccccc1 [Ex. 30, Methyl 4,9-dioxo-11α,15α-dihydroxy-16-phenoxy17,18,19,20-tetranprprost 13(E)-enoate]	> 10 µg/mL	3.7 µg/kg

Now from value to compound, other results behind:

IC50 [2]	Structure (SMILES)	ED50 [1]
> 10 µg/mL	COC(=O)CCCC(=O)CC[C@H]1C(=O)C[C@@H](O)[C@@H]1/C=C/[C@@H](O)COc1ccccc1 [Ex. 1, 5-Oxo-16-phenoxy-17,18,19,20-tetranorprostaglandin E1 methyl ester]	2.94 µg/kg
> 10 µg/mL	CCCCC(C)(C)[C@H](O)/C=C/[C@H]1[C@H](O)CC(=O)[C@@H]1CCCC(=O)CCC(=O)OC [Ex. 31, Methyl 4,9-dioxo-11α,15α-dihydroxy-16,16-dimethylprost 13(E) enoate]	4.91 µg/kg
> 10 µg/mL	COC(=O)CCCC(=O)CC[C@H]1C(=O)C[C@@H](O)[C@@H]1/C=C/[C@@H](O)COc1ccc(Cl)cc1 [Ex. 11, 5-Oxo-16-p-chlorophenoxy-17,18,19,20-tetranorprostaglandin E1 methyl ester]	0.49 µg/kg
